Source: patent US8143025B2, “Antibodies against vascular endothelial growth factor receptor-1” (ImClone LLC, priority 2004, dated 2012)

How the values were obtained:
[1] = test system: SW480 cells; test: Invasion through MATRIGEL coated membrane; assay type: cell-based, human; details: 66 nM antibody, 10 ng/mL VEGF-A or 50 ng/mL VEGF-B, 48 hours, p<0.05, FIG. 24
Procedure: HT-29 cells (2.5×1 10^4) or SW480 cells (1.5×1 10^4) were incubated in medium containing 1% FBS with the anti-VEGFR-1 antibody 18F1 ([…]) 8.0-μm pore size membrane insert (Becton Dickinson Labware, Bedford, Mass.). The inserts were placed into lower chambers containing 10 ng/mL VEGF-A (R&D Systems) or 50 ng/mL VEGF-B (R&D Systems) for 48 hours. Cells remaining in the top chamber of the inserts were removed with a cotton swab. Cells migrating to the underside of the inserts were stained with Diff-Quik (Harleco, Gibbstown, N.J.) and counted in ten random fields at 100× magnification. Statistical analysis was performed using InStat Statistical Software (V2.03, GraphPad Software, San Diego, Calif.).

[2] = test system: GEO xenograft; test: GEO colon cancer xenograft; assay type: in vivo, mouse; details: monotherapy, FIG. 26C
Procedure: Female athymic nu/nu mice, 6-8 weeks of age, were injected subcutaneously on the lateral dorsal surface with 0.4 mL volume of a suspension containing a human tumor cell line in media, diluted 1:1 with MATRIGEL™ (BD Biosciences). The cell lines used in xenograft models, with the cell doses indicated in parenthesis (10^6 cells/mouse), were: human colon carcinoma cell lines DLD-I (5), GEO (5) and HT-29 (5); human breast carcinoma cell lines DU4475 (2), MDA-MB-231 (5), MDA-MB-435 (5), and BT474 (5). When tumors reached approximately 200-300 mm^3, mice were randomized by tumor size and divided into treatment groups. Tumor growth was evaluated approximately twice weekly, with tumor volume calculated as π/6* (Length*Width^2), where Length=longest diameter and Width=diameter perpendicular to Length. Tumor dimensions were measured with calipers. T/C % was calculated as 100*(Final Treatment Tumor Volume/Initial Treatment Tumor Volume)/(Final Control Tumor Volume/Initial Control Tumor Volume).
18F1 was diluted in 0.9% USP saline (Braun) or phosphate buffered saline (PBS) and administered intraperitoneally in a volume of 0.5 mL per mouse. The effect of treatment on tumor growth was analyzed using repeated measures analysis of variance (RM ANOVA), p<0.05 was considered significant.

[3] = test system: MDA-MB-231 xenografts; test: Immunohistochemistry and TUNEL of MDA-MB-231 xenografts; assay type: in vivo, mouse
Procedure: Paraffin-embedded MDA-MB-231 xenografts were evaluated immunohistochemically for markers of tumor cell proliferation, survival, and apoptosis. Markers of proliferation and survival included Ki-67 (rabbit pAb; Lab Vision Corporation, Fremont, Calif.), phospho-specific p44/42 MAPK (Thr202/Tyr204) (rabbit pAb; Cell Signaling Technology) and phospho-specific Akt (Ser473) (rabbit pAb; Cell Signaling Technology). The EnVision+ System for rabbit antibodies (DAKO Cytomation, Carpenteria, Calif.) was used with 3,3′ diaminobenzidine (DAB) as the chromagen, per kit instructions. After brief counterstaining in Mayer's hematoxylin all sections were dehydrated, cleared and coverslipped using a permanent mounting medium. Tumor apoptosis was assessed by TUNEL assay using ApopTag® Peroxidase In Situ Apoptosis Detection Kit (Chemicon, Temecula, Calif.) per kit instructions. Stained sections were coverslipped with Gelmount (Biomeda, Foster City, Calif.). Positive immunostaining and TUNEL positive […] were analyzed and imaged using an Axioskop light microscope with an Axiocam digital camera (Carl Zeiss, Germany).

[4] = molecular target: T1, mouse VEGFR-I Fc (Mus musculus, UniProt P35969); test: ELISA-based specificity assay (Example 2A); assay type: binding; details: FIG. 6B
T1 sequence (P35969 23-759 limits assumed): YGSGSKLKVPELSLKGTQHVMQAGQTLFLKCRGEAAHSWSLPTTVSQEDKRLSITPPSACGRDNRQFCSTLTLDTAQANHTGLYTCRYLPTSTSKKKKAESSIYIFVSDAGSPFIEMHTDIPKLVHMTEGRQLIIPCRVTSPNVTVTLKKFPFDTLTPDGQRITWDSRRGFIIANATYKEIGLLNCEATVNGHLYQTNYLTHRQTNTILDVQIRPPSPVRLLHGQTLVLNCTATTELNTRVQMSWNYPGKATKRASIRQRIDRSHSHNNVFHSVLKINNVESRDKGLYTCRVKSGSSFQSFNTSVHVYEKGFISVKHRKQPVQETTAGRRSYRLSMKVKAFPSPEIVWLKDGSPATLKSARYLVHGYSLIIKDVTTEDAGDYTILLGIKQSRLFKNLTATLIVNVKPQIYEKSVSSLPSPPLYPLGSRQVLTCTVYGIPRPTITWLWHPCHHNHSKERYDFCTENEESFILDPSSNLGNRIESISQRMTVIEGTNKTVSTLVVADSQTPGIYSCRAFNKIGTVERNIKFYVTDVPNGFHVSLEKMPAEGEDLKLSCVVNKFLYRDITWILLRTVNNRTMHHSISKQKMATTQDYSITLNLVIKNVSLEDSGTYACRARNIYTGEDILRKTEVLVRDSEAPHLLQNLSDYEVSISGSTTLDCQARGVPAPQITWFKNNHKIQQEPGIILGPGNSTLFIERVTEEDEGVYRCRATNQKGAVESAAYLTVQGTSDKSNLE
Procedure: (§1) To determine the specificity of an anti-VEGFR-1 monoclonal antibody to human VEGFR-I, purified antibodies 18F1 were tested in an ELISA-based assay. One μg/ml of recombinant human VEGFR-I Fc, mouse VEGFR-I Fc, mouse VEGFR-2 Fe, or human VEGFR-2 alkaline phosphatase was coated with PBS in a 96-well microtiter plates at 4° C. over night. After wash, the receptor coated plates were blocked with PBS containing 5% Dry Milk and 0.05% Tween 20. Serial dilutions of primary antibody 18F1 to human VEGFR-I, MF1 to mouse VEGFR-I. ICl 1 to human VEGFR-2, or DClOl to mouse VEGFR-2 were incubated in the receptor-coated plates for 30 minutes. After wash secondary anti-primary HRP conjugate antibodies was incubated in the plates for 30 minutes. Plates were washed and incubated with the substrate TMB (3,3′,5,5′-tetra-methylbenzidine) for color development. The absorbance at 450 nm was read as OD values for quantification of binding activity of antibodies. Data were analyzed using a GraphPad Prism Software.

[5] = molecular target: mouse VEGFR-2 (Mus musculus, UniProt P35918); test: ELISA-based specificity assay (Example 2A); assay type: binding; details: FIG. 6D
Chain of mouse VEGFR-2 (P35918 20-762 limits assumed): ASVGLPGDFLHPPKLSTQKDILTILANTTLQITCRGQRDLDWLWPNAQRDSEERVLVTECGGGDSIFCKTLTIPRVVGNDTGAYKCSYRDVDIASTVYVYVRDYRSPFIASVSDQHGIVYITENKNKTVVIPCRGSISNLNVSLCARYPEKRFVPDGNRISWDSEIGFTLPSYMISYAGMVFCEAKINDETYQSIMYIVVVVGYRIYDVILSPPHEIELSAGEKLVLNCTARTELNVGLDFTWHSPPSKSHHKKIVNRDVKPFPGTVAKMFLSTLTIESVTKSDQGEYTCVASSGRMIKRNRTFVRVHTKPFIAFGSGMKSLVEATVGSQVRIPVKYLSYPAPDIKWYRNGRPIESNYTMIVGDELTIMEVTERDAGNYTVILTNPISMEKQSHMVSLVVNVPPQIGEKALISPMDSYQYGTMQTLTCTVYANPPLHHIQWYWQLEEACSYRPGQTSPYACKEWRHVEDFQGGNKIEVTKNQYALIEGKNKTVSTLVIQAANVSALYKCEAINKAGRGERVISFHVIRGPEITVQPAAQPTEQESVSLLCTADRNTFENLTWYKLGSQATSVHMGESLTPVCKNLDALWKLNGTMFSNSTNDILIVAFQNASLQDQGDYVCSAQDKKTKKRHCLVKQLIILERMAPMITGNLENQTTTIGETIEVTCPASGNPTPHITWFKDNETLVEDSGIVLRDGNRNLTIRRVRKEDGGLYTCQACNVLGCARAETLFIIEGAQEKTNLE
Procedure: as §1

[6] = molecular target: human VEGFR-2 alkaline phosphatase (Homo sapiens, UniProt P35968); test: ELISA-based specificity assay (Example 2A); assay type: binding; details: FIG. 6C
Chain of human VEGFR-2 alkaline phosphatase (P35968 20-764 limits assumed): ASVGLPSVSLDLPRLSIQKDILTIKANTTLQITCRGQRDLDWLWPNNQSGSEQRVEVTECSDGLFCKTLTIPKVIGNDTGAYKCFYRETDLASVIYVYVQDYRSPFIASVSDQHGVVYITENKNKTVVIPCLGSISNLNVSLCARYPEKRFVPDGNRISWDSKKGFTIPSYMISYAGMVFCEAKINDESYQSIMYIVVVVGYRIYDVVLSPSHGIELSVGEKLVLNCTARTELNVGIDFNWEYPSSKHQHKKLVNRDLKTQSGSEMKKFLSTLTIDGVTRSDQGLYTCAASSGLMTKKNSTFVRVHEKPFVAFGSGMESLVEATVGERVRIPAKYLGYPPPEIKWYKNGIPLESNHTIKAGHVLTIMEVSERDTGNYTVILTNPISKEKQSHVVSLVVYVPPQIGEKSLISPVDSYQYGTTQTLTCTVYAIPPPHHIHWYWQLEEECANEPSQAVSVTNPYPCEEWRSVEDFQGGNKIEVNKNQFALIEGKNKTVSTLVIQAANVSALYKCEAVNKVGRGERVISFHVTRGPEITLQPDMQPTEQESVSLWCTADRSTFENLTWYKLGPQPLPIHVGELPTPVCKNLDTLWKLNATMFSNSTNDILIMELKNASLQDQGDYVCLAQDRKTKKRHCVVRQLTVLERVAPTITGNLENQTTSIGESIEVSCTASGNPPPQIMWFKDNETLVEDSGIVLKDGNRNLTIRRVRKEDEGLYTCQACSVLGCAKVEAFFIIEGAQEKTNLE
Procedure: as §1

[7] = molecular target: T2, recombinant human VEGFR-I Fc (Homo sapiens, UniProt P17948); test: ELISA-based specificity assay (Example 2A); assay type: binding; details: FIG. 6A
T2 construct: soluble recombinant VEGFR-I Fc (rhuVEGFR-1 Fc) proteins were purchased from (R&D Systems Inc); purchased R&D Systems Inc
T2 sequence (P17948 27-758 limits assumed): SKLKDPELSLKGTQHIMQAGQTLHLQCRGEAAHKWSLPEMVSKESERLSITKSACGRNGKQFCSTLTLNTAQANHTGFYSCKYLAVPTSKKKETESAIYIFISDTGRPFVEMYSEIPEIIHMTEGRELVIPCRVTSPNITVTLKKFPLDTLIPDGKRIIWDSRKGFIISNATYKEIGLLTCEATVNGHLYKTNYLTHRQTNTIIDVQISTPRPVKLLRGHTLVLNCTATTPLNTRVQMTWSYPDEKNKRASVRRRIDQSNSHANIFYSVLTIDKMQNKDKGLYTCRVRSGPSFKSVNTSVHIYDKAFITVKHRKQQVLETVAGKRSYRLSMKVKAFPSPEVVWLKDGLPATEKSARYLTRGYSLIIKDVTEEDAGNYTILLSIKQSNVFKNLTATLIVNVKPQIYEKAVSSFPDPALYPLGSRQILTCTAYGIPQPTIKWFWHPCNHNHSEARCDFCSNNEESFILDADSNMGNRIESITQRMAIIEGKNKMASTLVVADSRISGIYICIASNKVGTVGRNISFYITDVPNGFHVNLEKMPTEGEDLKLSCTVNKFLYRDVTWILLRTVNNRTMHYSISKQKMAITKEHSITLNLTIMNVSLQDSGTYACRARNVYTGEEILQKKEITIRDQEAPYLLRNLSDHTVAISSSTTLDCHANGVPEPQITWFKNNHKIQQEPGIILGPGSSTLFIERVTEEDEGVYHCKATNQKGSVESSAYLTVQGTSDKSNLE
Procedure: as §1

[8] = after 1 week, 0.5 mg/dose M-W-F
[9] = after 14 days, 20 mg/kg 2x/week

cross reactivity with mouse VEGFR-I [4]: no cross reactivity
cross reactivity with mouse VEGFR-2 [5]: no cross reactivity
cross reactivity with human VEGFR-2 [6]: no cross reactivity
binding specificity to human VEGFR-I [7]: binding of human VEGFR-I
Substance: 18F1: human anti-VEGFR-1 monoclonal antibody clone; VL SEQ ID NO: 16, VH SEQ ID NO: 20 [Clone 18F1]
VEGFR-I ligand induced invasion [1]: completely blocked
antitumor effect against GEO colon cancer xenografts [2]: significant antitumor effect
Akt phosphorylation [3, 8]: significant decrease
apoptosis as measured by TUNEL positive events [3, 8]: increase
activation of MAPK [3, 9]: marked decrease
marker for proliferating cells (Ki-67) [3, 9]: significantly reduced
